Patent US8133685B2, “AMPK modulation as a method of regulating stem cell and cancer stem cell proliferation, self-renewal and differentiation” (Washington University, priority 2008, dated 2012)

What was measured:
[1] = test system: Neural Stem and Progenitor cells (NPCs); experiment: NPC proliferation: count of trypan blue negative (live) cells after 48 hours of growth; assay type: cell-based, mouse; details: E12.5 forebrain wildtype NPCs, vs DMSO, p<0.001
Procedure: FIG. 26. […] Embryonic day 12.5 forebrain wildtype NPCs were cultured for 4 days and seeded as single cells in presence of DMSO (control), or the AMPK inhibitors Compound C (10 μM) and Adenine 9-β-D-arabinofuranoside (Ara A 1 mM). Following 48 hours of growth in medium supplemented with EGF ([…]) and bFGF ([…]), neurospheres were trypsinized and trypan blue negative (live) cells were counted on a hemocytometer. * p<0.001
Neurospheres were dissected from E12.5 CNS telencephalic lobes and cultured in neurobasal medium supplemented with B27 and N2, as described previously (Dasgupta, B. and Gutmann, D. H., J. Neurosci. 25, 5584-5594, 2005). […] At each time point, resulting neurospheres were trypsinized and counted on a hemocytometer. For self-renewal assays, single neurospheres were picked up by pipette and neurosphere diameter was measured individually under microscope. Ten similar-sized neurospheres of each genotype were triturated individually before plating, and the number of resulting secondary neurospheres generated per primary neurosphere was counted after 6 days. Neurosphere diameters were measured using Metamorph software. […] Briefly, NPCs were pulse labeled with […] CFSE at 37° C. for 15 min, washed, and one-half of the cells were analyzed by FACS, while the other half was analyzed after 4 days of growth. […]

AMPK = experiment: Immunoblot of pAMPK and pRb in WT NPCs after growth factor (EGF and FGF) withdrawal and re-administration; assay type: cell-based, mouse; details: growth factors withdrawn 2 h, re-administered 1 h in presence of compound C (CC; 5 mM per FIG. 54 legend)
Text: FIG. 54. This figure illustrates that energy restriction and growth factor signaling utilize the AMPK-Rb axis to enhance NPC proliferation. […] (B and C) Proliferation assay of WT NPCs (B) and β1−/−NPCs (C) cultured for 48 hr under glucose-limiting conditions (Cont=25 Mm glucose, which is the amount in neurobasal medium). Data are representative of three independent experiments (#p=0.07; *p % 0.005). Error bars indicate SD. (D and E) Densitometric analysis using phospho-specific AMPKα^Thr172, Rb^Ser800/804, ACC^Ser79, and pan AMPKα, Rb, and ACC antibodies. AU, arbitrary units.
Cultured NPCs or MEFs were lysed with MAPK lysis buffer (20 mM Tris-HCL, pH 7.5, 150 mM, NaCl, 1 mM EGTA, 1 mM EDTA, 1% TritonX-100, 2.5 mM sodium pyrophosphate, 1 mM β-glycerophosphate, 1 mM sodium vanadate, 1 mM PMSF, 1 mM DTT and protease inhibitor cocktail). AMPK was immunoprecipitated with AMPKα1/2 antibody (Cell Signaling Technology), Rb was immunoprecipitated with Rb antibody (Santa Cruz Biotechnology, Santa Cruz, Calif.) and cyclinD1/D2 (associated with CDK4/6) was immunoprecipitated with CyclinD1 and CyclinD2 antibodies (Cell Signaling Technology). […] The immunoprecipitated proteins were analyzed by standard immunoblot analysis. […]

AMPK holoenzyme = experiment: Nonradioactive in vitro kinase assay: immunoprecipitated AMPK holoenzyme phosphorylating recombinant Rb fusion protein (residues 701-928); assay type: biochemical, mouse; details: AMPK immunoprecipitated from WT NPCs, phospho-Rb800/804 immunoblot
Procedure: Nonradioactive in vitro kinase assay was performed as previously described (Lee et al., Nature 447, 1017-1020, 2007), with minor modifications. Briefly, WT NPCs were lysed with MAPK buffer, and AMPK was immunoprecipitated from WT NPCs with AMPKα1/2 antibody, washed with a buffer containing 10 mM Tris-Hcl (pH 7.5) and 0.5 M LiCl, and suspended in kinase buffer containing 0.5 mM ATP. CyclinD1/D2 (associated with CDK4/6) was immunoprecipitated with cyclinD1 and cyclinD2 antibodies. Reactions were carried out at 30° C. for 1 hr by adding RB-C fusion protein (residues 701-928; Cell Signaling Technology, Beverly, Mass.) to the reaction mix. Reaction was terminated by adding 6× Laemmli buffer and boiling for 5 min. Samples were resolved in 10% SDS-PAGE, and Western blot analysis was performed with phospho-RbSer^800/804 (Ser^807/811 in human) antibody (Cell Signaling Technology).
The CDK-cyclin D complex is known to phosphorylate Rb at Ser804. […] CDK4/6, which exist in complexes with cyclinD1/D2, were immunoprecipitated using cyclin D1/2 antibodies, and the activity was measured by nonradioactive in vitro kinase assays using bacterially produced Rb fusion protein (residues 701-928) as the substrate. […] In these experiments, phosphorylation was monitored by immunoblot using phosphor-Rb800/804 antibody. […]

Rb-E2F1 = experiment: Immunoprecipitation with Rb antibody and Western blot with E2F1 antibody from NPCs; assay type: cell-based, mouse; set-up: dose or concentration left out as unconfirmed; details: NPCs grown in indicated glucose concentration
Procedure: FIG. 56. This figure illustrates that energy restriction and growth factor signaling utilize the AMPK-Rb axis to enhance NPC proliferation. (A) Immunoprecipitation assay using Rb antibody and Western blot with E2F1 antibody from NPCs grown in the indicated glucose concentration in the absence or presence of CC ([…]). (B) Immunohistochemistry of saggital sections of E14.5 wildtype and β1−/− body using pHistoneH3 antibody (red).
Cultured NPCs or MEFs were lysed with MAPK lysis buffer (20 mM Tris-HCL, pH 7.5, 150 mM, NaCl, 1 mM EGTA, 1 mM EDTA, 1% TritonX-100, 2.5 mM sodium pyrophosphate, 1 mM β-glycerophosphate, 1 mM sodium vanadate, 1 mM PMSF, 1 mM DTT and protease inhibitor cocktail). […] The immunoprecipitated proteins were analyzed by standard immunoblot analysis. […]
AMPK is integrally involved in regulating cellular energy homeostasis and is activated by low cellular ATP levels, such as occurs by limiting oxygen or glucose supplies or exercise, conditions that enhance proliferative capacity of stem cells (Burgers et al., Exp. Brain Res. 188, 33-43, 2008; Fu et al., Diabetologia 49, 1027-1038, 2006; Stolzing et al., Rejuvenation Res. 9, 31-35, 2006). To explore whether the proliferative effects of glucose restriction are manifested through activation of the AMPK-Rb axis, we monitored the growth of WT NPCs cultured in 2.5-25 mM (the amount present in neurobasal medium) glucose for 48 hr. […]

WT NPCs = experiment: Proliferation assay of WT NPCs cultured 48 hr under glucose-limiting conditions; assay type: cell-based, mouse; details: 2.5-25 mM glucose
Procedure: FIG. 54. This figure illustrates that energy restriction and growth factor signaling utilize the AMPK-Rb axis to enhance NPC proliferation. (A) Densitometric analysis of WT NPCs using indicated antibodies after 2-hr growth factor stimulation in the presence or absence of AMPK inhibitor compound C (CC; […]). (B and C) Proliferation assay of WT NPCs (B) and β1−/−NPCs (C) cultured for 48 hr under glucose-limiting conditions (Cont=25 Mm glucose, which is the amount in neurobasal medium). Data are representative of three independent experiments (#p=0.07; *p % 0.005). Error bars indicate SD. […]
Neurospheres were dissected from E12.5 CNS telencephalic lobes and cultured in neurobasal medium supplemented with B27 and N2, as described previously (Dasgupta, B. and Gutmann, D. H., J. Neurosci. 25, 5584-5594, 2005). […] At each time point, resulting neurospheres were trypsinized and counted on a hemocytometer. For self-renewal assays, single neurospheres were picked up by pipette and neurosphere diameter was measured individually under microscope. Ten similar-sized neurospheres of each genotype were triturated individually before plating, and the number of resulting secondary neurospheres generated per primary neurosphere was counted after 6 days. Neurosphere diameters were measured using Metamorph software. […]

AMPK phosphorylation of Rb at Ser804 (AMPK holoenzyme)	Structure (SMILES)	proliferation of NPCs (live cell count) ([1]; 1 mM)	increase in phosphoAMPK (pAMPK Thr172) on EGF and FGF re-administration (AMPK)	increase in phosphoRb (Ser800/804) on EGF and FGF re-administration (AMPK)	Rb sequestration of E2F1 (Rb-bound E2F1) (Rb-E2F1)	NPC growth stimulation by low glucose (WT NPCs)	neurosphere growth (WT NPCs)	proliferation of NPCs (live cell count) ([1]; 10 μM)
	Nc1ncnc2c1ncn2[C@@H]1O[C@H](CO)[C@@H](O)[C@@H]1O [Ara A, Adenine 9-β-D-arabinofuranoside]	drastically reduces proliferation						
could be inhibited	c1cc(-c2cnn3cc(-c4ccc(OCCN5CCCCC5)cc4)cnc23)ccn1 [Compound C, 6-[4-(2-piperidin-1-ylethoxy)-phenyl]-3-pyridin-4-ylpyrazolo[1,5-α]pyrimidine]		no increase	no increase	higher levels	not observed	severely inhibited	drastically reduces proliferation
